According to patent US20240132521A1, “COMPOUNDS AND METHODS FOR MODULATING HER2” (Iambic Therapeutics, Inc., priority 2022, published 2024):
Structures can show the parent of a compound that is named as a salt. Where two headings read alike, the source gives them in different places.

Key:
Type in all cases: cell-based
BaF3_EGFRWT cells = BaF3_EGFRWT cells (Homo sapiens, UniProt P00533); assay: Cell growth inhibition assay (CellTiterGlo), BaF3_EGFRWT
BaF3_HER2YVMA cells = BaF3_HER2YVMA cells (Homo sapiens, UniProt P04626, DUP772-775, cells depend on it); assay: Cell growth inhibition assay (CellTiterGlo), BaF3_HER2YVMA
BaF3_HER2WT cells = BaF3_HER2WT cells (Homo sapiens, UniProt P04626); assay: Cell growth inhibition assay (CellTiterGlo), BaF3_HER2WT
[1] = 3-day treatment, CellTiterGlo, read-out: Cell growth inhibition activity, EGFR WT
[2] = 3-day treatment, CellTiterGlo, read-out: Cell growth inhibition activity, HER2 WT
[3] = cell growth inhibition, 3 days treatment, read-out: HER2 - YVMA IC50
[4] = cell growth inhibition, 3 days treatment, read-out: HER2 WT IC50
[5] = cell growth inhibition, 80 ng/mL EGF, 3 days treatment, read-out: EGFR WT IC50

BaF3_HER2WT cells, sequence (P04626 whole entry, change not shown): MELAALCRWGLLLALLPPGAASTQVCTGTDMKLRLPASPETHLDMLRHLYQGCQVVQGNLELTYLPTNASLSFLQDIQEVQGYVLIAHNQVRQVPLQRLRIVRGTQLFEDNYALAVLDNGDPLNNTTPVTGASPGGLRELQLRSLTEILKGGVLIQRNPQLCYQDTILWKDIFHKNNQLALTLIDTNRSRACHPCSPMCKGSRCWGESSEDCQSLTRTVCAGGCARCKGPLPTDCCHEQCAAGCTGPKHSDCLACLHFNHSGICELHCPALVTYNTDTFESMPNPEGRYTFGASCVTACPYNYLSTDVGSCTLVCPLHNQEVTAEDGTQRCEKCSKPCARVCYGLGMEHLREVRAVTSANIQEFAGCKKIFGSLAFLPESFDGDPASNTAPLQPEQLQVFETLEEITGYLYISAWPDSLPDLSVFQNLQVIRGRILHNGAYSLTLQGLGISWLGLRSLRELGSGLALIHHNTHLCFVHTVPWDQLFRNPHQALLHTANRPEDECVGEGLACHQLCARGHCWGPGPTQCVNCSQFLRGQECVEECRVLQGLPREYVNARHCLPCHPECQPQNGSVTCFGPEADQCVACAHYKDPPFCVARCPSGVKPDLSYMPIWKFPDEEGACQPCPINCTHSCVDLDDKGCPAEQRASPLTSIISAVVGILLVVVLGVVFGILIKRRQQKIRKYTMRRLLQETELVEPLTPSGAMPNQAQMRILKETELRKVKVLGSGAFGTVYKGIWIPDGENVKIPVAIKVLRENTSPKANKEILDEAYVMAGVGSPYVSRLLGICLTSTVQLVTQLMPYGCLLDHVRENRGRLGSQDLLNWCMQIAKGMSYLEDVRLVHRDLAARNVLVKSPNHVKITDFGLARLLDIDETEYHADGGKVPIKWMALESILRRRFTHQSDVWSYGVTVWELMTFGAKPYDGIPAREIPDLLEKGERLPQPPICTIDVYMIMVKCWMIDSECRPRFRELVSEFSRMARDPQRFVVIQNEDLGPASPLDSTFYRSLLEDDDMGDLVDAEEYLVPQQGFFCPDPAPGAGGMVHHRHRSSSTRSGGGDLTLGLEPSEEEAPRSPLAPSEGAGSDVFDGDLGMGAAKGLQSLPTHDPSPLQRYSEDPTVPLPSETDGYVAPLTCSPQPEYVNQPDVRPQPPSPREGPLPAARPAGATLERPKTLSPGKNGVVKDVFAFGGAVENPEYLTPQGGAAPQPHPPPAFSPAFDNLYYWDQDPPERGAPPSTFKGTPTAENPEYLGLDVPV
BaF3_HER2YVMA cells, sequence (P04626 with tags, fused parts or gaps DUP772-775): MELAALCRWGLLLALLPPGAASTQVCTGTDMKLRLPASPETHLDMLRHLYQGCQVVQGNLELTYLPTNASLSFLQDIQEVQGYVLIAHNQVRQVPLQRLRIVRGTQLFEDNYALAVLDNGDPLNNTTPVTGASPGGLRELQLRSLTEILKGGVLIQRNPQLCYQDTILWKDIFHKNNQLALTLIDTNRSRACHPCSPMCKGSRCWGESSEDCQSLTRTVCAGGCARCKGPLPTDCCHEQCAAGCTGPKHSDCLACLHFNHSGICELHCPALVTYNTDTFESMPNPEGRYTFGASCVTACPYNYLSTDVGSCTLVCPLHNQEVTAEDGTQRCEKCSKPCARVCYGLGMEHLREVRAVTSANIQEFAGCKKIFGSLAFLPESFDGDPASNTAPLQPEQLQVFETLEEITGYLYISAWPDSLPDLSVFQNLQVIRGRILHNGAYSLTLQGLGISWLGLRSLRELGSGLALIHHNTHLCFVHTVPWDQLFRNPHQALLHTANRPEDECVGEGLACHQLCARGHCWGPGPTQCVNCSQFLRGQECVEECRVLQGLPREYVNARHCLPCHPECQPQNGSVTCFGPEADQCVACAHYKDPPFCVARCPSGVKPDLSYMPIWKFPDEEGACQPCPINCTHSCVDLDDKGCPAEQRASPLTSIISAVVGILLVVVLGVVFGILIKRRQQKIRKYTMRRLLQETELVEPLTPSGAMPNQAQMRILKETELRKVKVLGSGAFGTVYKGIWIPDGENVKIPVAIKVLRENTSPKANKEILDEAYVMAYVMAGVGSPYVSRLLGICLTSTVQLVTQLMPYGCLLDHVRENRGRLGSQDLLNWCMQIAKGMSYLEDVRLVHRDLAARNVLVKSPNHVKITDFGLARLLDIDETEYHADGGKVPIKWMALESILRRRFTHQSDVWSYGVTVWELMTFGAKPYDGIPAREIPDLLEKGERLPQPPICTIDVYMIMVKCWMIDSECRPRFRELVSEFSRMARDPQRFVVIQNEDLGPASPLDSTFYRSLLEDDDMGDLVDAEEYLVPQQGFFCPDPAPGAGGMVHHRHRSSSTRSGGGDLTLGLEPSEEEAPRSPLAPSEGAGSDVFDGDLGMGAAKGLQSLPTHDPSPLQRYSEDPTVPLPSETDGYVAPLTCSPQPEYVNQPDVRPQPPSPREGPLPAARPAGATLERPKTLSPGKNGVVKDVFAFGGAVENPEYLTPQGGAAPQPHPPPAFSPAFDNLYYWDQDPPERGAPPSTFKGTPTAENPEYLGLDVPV
BaF3_EGFRWT cells, sequence (P00533 whole entry, change not shown): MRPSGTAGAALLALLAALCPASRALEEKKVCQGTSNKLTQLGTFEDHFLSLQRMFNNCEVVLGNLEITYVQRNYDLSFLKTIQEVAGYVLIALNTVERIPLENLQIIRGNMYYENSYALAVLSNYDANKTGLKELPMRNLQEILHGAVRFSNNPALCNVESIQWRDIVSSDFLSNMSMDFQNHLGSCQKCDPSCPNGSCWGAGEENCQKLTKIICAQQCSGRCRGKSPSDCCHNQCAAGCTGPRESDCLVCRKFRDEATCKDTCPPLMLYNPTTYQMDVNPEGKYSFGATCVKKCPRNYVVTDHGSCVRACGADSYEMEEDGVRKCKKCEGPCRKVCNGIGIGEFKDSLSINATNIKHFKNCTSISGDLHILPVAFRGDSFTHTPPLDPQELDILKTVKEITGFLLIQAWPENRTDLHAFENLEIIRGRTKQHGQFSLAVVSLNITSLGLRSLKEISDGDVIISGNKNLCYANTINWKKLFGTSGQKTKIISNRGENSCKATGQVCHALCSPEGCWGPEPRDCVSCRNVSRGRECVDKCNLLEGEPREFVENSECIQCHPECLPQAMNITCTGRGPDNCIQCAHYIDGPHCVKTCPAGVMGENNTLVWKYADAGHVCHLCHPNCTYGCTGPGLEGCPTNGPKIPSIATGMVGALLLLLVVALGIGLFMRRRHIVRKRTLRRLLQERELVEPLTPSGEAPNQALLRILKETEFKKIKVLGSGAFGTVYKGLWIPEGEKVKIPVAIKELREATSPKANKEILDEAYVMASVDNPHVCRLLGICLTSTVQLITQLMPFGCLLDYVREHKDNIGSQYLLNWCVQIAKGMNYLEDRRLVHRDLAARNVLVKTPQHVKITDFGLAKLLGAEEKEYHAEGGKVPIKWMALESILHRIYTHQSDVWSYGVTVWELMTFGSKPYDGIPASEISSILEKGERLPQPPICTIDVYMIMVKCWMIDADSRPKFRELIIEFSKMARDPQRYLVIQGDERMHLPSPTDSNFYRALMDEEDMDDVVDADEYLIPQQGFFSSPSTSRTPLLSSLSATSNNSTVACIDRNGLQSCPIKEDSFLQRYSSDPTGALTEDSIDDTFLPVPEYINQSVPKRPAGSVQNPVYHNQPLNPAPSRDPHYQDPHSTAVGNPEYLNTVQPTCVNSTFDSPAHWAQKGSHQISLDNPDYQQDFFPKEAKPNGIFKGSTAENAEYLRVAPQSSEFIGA

GI50 (BaF3_EGFRWT cells; [1])	GI50 (BaF3_HER2WT cells; [2])	GI50 (BaF3_EGFRWT cells; [5])	SMILES	further results
1.5 to 5 µM			COC1CCN(C/C=C/C(=O)N2CCC(c3ccn4ncnc(Nc5ccc(Oc6ccc7c(c6)ncn7C)c(C)c5)c34)CC2)C1 (racemic) [Example 106, (E)-4-(3-methoxypyrrolidin-1-yl)-1-(4-(4-((3-methyl-4-((1-methyl-1H-benzo[d]imidazol-5-yl)oxy)phenyl)amino)pyrrolo[2,1-f][1,2,4]triazin-5-yl)piperidin-1-yl)but-2-en-1-one]	
1.5 to 5 µM	0.5 to 1.5 µM		C=CC(=O)N1C[C@H]2C[C@@H]1C[C@H]2c1ccn2ncnc(Nc3ccc(Oc4ccn5ncnc5c4)c(C)c3)c12 (relative stereo) [Example 104, Rel-1-1(1S,4S,5R)-5-{4-[(3-methyl-4-{[1,2,4]triazolo[1,5-a]pyridin-7-yloxy}phenyl)amino]pyrrolo[2,1-f][1,2,4]triazin-5-yl}-2-azabicyclo[2.2.1]heptan-2-yl]prop-2-en-1-one]	GI50 (BaF3_HER2YVMA cells; 3-day treatment, CellTiterGlo, read-out: Cell growth inhibition activity, HER2 - YVMA): 1.5 to 5 µM
		1.5 to 5 µM	Cc1cc(Nc2ncnn3ccc(C4CCN(C(=O)/C=C/CN(C)C)C4)c23)ccc1Oc1ccn2ncnc2c1 (single isomer, unassigned) [Examples 99 and 100, first eluting isomer, (E)-1-(3-(4-((4-([1,2,4]triazolo[1,5-a]pyridin-7-yloxy)-3-methylphenyl)amino)pyrrolo[2,1-f][1,2,4]triazin-5-yl)pyrrolidin-1-yl)-4-(dimethylamino)but-2-en-1-one]	GI50 (BaF3_HER2YVMA cells; [3]): < 0.2 µM; GI50 (BaF3_HER2WT cells; [4]): < 0.2 µM
		1.5 to 5 µM	Cc1cc(Nc2ncnn3ccc(C4CCN(C(=O)/C=C/CN(C)C)C4)c23)ccc1Oc1ccn2ncnc2c1 (single isomer, unassigned) [Examples 99 and 100, second eluting isomer, (E)-1-(3-(4-((4-([1,2,4]triazolo[1,5-a]pyridin-7-yloxy)-3-methylphenyl)amino)pyrrolo[2,1-f][1,2,4]triazin-5-yl)pyrrolidin-1-yl)-4-(dimethylamino)but-2-en-1-one]	GI50 (BaF3_HER2YVMA cells; [3]): 0.5 to 1.5 µM; GI50 (BaF3_HER2WT cells; [4]): < 0.2 µM
		1.5 to 5 µM	C=CC(=O)N1CCCC(c2ccn3ncnc(Nc4ccc(Oc5ccn6ncnc6c5)c(C)c4)c23)CC1 (single isomer, unassigned) [Examples 111 and 112, second eluting isomer, 1-(4-(4-((4-([1,2,4]triazolo[1,5-a]pyridin-7-yloxy)-3-methylphenyl)amino)pyrrolo-[2,1-f][1,2,4]triazin-5-yl)azepan-1-yl)prop-2-en-1-one]	
1.5 to 5 µM			Cc1cc(Nc2ncnn3ccc(C4CCN(C(=O)/C=C/CN(C)C)CC4)c23)ccc1Oc1ccn2ncnc2c1 [Example 21, (E)-1-(4-(4-((4-([1,2,4]triazolo[1,5-a]pyridin-7-yloxy)-3-methylphenyl)amino)pyrrolo[2,1-f][1,2,4]triazin-5-yl)piperidin-1-yl)-4-(dimethylamino)but-2-en-1-one]	
1.5 to 5 µM	< 0.2 µM		COC1CN(C/C=C/C(=O)N2CC(c3ccn4ncnc(Nc5ccc(Oc6ccn7ncnc7c6)c(C)c5)c34)C2)C1 [Example 39, (E)-1-(3-(4-((4-([1,2,4]triazolo[1,5-a]pyridin-7-yloxy)-3-methylphenyl)amino)pyrrolo[2,1-f][1,2,4]triazin-5-yl)azetidin-1-yl)-4-(3-methoxyazetidin-1-yl)but-2-en-1-one]	

SMILES	GI50 (BaF3_EGFRWT cells; [1])	GI50 (BaF3_HER2WT cells; [2])	GI50 (BaF3_EGFRWT cells; [5])	further results
Cc1cc(Nc2ncnn3ccc(C(=O)NCCCN(C)C)c23)ccc1Oc1ccn2ncnc2c1 [Example 179, 4-((4-([1,2,4]triazolo[1,5-a]pyridin-7-yloxy)-3-methylphenyl)amino)-N-(3-(dimethylamino)-propyl)pyrrolo[2,1-f][1,2,4]triazine-5-carboxamide hydrochloride]	> 5 µM	0.2 to 0.5 µM		
